Results taken from BindingDB's records for doi:10.1016/j.ejmech.2023.115292 (National Research Centre, 2023).

Columns and labels:
[1] = Inhibition of SARS-CoV-2 RdRp transfected in HEK293T cells incubated for 24 hrs by […]
[2] = Inhibition of SARS-CoV-2 RdRp transfected in human A549 cells incubated for 24 hrs by […]

Row | SMILES | EC50 [1] [µM] | EC50 [2] [µM]
1 | O=C(CSc1c[nH]c2ccccc12)c1ccc(Cl)c(Cl)c1 | 2.75 | 
2 | CCOc1cccc(CNC(=O)CSc2cn(C(=O)OC(C)(C)C)c3ccccc23)c1 | 1.41 | 1.18
3 | Cc1cccc(C(=O)CSc2c[nH]c3ccccc23)c1 | 2.53 | 
